Test results reported in patent US20040044046A1, “Stability of lipoic acid” (priority 2002, published 2004).

Legend:
[1] = reduced form with two -SH groups; cited from earlier work
[2] = Storage stability of the nicotinamide lipoate crystalline powder, followed by repeated infrared spectrophotometry; type: physicochemical
Source text: A small quantity of the powder as a mineral oil mull spread was spread on NaCl polished crystal plates. The plate was placed in a Beckman Infrared Spectrophotometer AccuLab 2 grating machine, linear in wave number.

[3] = can degrade under some warehousing conditions; cited from earlier work

With `O=C(O)CCCC[C@@H](S)CCS` (racemic) [DHLA, dihydrolipoate] as the compound, how does the Oxidation potential [1] read?
Its Oxidation potential is −0.29 V.

Which “Change in crystal form or chemical composition on standing” value ([2]; ambient conditions (light and temperature) for over a year) does the source give for `NC(=O)c1cccnc1.O=C(O)CCCCC1CCSS1` (stereo not shown) [Example 1] here?
The value was “essentially no change”.

What about the “Infrared spectrum on repeat spectrophotometry compared with initial spectrum” value ([2]; mineral oil mull on NaCl plates, repeated at about 3 and 17 months, ambient conditions (light and temperature)) of the same compound?
Its value is “essentially the same”.

For `O=C(O)CCCC[C@@H]1CCSS1` [R-LA, R-α-lipoic acid], which “Temperature above which unstable” value [3] is on record?
Its value is “above 40 °C”.
